In assay [1] the test system is MV4-11. Nature of the assay: Induction of apoptosis in human MV4-11 cells assessed as viable cells at 200 nmol/L incubated for 72 hrs by Annexin V/PI staining based flow cytometry analysis (reference value: 90.23%). It counts as functional. Particulars: Homo sapiens, MV4-11, read-out: Activity. In general terms: Flow cytometry measures light scatter and fluorescence of single cells or particles in a stream.

The test system of assay [2] is MV4-11. Nature of the assay: Induction of apoptosis in human MV4-11 cells assessed as late apoptotic cells at 200 nM incubated for 72 hrs in presence of vorinostat by Annexin V/PI staining based flow cytometry analysis (reference value: 6.42 %). It counts as functional.
For assay [3], the system named is MV4-11. Nature of the assay: Induction of apoptosis in human MV4-11 cells assessed as early apoptotic cells at 200 nmol/L incubated for 72 hrs by Annexin V/PI staining based flow cytometry analysis (reference value: 4.17 %). Format: functional.
Assay [4] has as its system MV4-11. Nature of the assay: Antiproliferative activity against human MV4-11 cells assessed as growth inhibition at 2 uM measured after 72 hrs in presence of 0.1 uM of vorinostat by CellTiterGlo assay. Format: functional. As to conditions: read-out: GI.
Assay [5] has as its system MV4-11. As to the kind of experiment: Antiproliferative activity against human MV4-11 cells assessed as growth inhibition at 0.1 uM measured after 72 hrs in presence of 0.05 uM of vorinostat by CellTiterGlo assay. It counts as functional. As to conditions: read-out: GI. In general terms: In ATP-based viability assays light output follows the ATP content of the culture.

Assay [6] concerns MV4-11. Nature of the assay: Antiproliferative activity against human MV4-11 cells assessed as growth inhibition at 0.4 uM measured after 72 hrs by CellTiterGlo assay. Particulars: read-out: GI. It counts as functional.
The subject of assay [7] is MV4-11. Nature of the assay: Antiproliferative activity against human MV4-11 cells assessed as growth inhibition at 0.4 uM measured after 72 hrs in presence of 0.4 uM of vorinostat by CellTiterGlo assay. It counts as functional. Particulars: read-out: GI.
Assay [8] concerns MV4-11. Nature of the assay: Induction of apoptosis in human MV4-11 cells assessed as late apoptotic cells at 200 nmol/L incubated for 72 hrs by Annexin V/PI staining based flow cytometry analysis (reference value: 5.14%). It counts as functional.
Assay [9] relates to MV4-11. As to the kind of experiment: Antiproliferative activity against human MV4-11 cells assessed as growth inhibition at 0.05 uM measured after 72 hrs in presence of 0.4 uM of vorinostat by CellTiterGlo assay. Format: functional. As to conditions: read-out: GI.
In assay [10] the test system is MV4-11. As to the kind of experiment: Antiproliferative activity against human MV4-11 cells assessed as growth inhibition at 2 uM measured after 72 hrs in presence of 0.2 uM of vorinostat by CellTiterGlo assay. Particulars: read-out: GI. Format: functional.
In assay [11] the test system is MV4-11. As to the kind of experiment: Induction of apoptosis in human MV4-11 cells assessed as viable cells at 400 nM incubated for 72 hrs in presence of vorinostat by Annexin V/PI staining based flow cytometry analysis (reference value: 96.68%). Particulars: read-out: Activity. It counts as functional.
Assay [12] relates to MV4-11. Nature of the assay: Antiproliferative activity against human MV4-11 cells assessed as growth inhibition at 0.2 uM measured after 72 hrs in presence of 0.4 uM of vorinostat by CellTiterGlo assay. Format: functional. Particulars: read-out: GI.
In assay [13] the test system is MV4-11. Nature of the assay: Induction of apoptosis in human MV4-11 cells assessed as necrotic cells at 200 nmol/L incubated for 72 hrs by Annexin V/PI staining based flow cytometry analysis (reference value: 0.46%). It counts as functional.
Assay [14] deals with MV4-11. As to the kind of experiment: Antiproliferative activity against human MV4-11 cells assessed as growth inhibition at 0.05 uM measured after 72 hrs in presence of 0.1 uM of vorinostat by CellTiterGlo assay. It counts as functional. Particulars: read-out: GI.
The next assay addresses Histone deacetylase 1 (Homo sapiens, UniProt Q13547). As to the kind of experiment: Inhibition of HDAC1 (unknown origin) by fluorescence based assay.
A further assay relates to MOLM-13. As to the kind of experiment: cells. It counts as functional, cell-based. Particulars: Homo sapiens, MOLM-13, 72 h.
For assay [15], the system named is MV4-11. As to the kind of experiment: Antitumor activity against human MV4-11 cells xenografted in mouse assessed as tumor growth inhibition at 20 mg/kg, ip administered daily for 17 days. It counts as functional. Particulars: MV4-11, 408 h, time 17 day, read-out: TGI. (In xenograft studies the graft and the host belong to different species.)
The subject of assay [16] is MV4-11. Nature of the assay: Induction of apoptosis in human MV4-11 cells assessed as necrotic cells at 100 nmol/L incubated for 72 hrs by Annexin V/PI staining based flow cytometry analysis (reference value: 0.46%). Format: functional.
In assay [17] the test system is MV4-11. As to the kind of experiment: Induction of apoptosis in human MV4-11 cells assessed as late apoptotic cells at 100 nmol/L incubated for 72 hrs by Annexin V/PI staining based flow cytometry analysis (reference value: 5.14%). It counts as functional.
Assay [18] concerns MV4-11. Nature of the assay: Induction of apoptosis in human MV4-11 cells assessed as early apoptotic cells at 50 nmol/L incubated for 72 hrs by Annexin V/PI staining based flow cytometry analysis (reference value: 4.17 %). It counts as functional.
Assay [19] concerns MV4-11. As to the kind of experiment: Induction of apoptosis in human MV4-11 cells assessed as necrotic cells at 50 nmol/L incubated for 72 hrs by Annexin V/PI staining based flow cytometry analysis (reference value: 0.46%). Format: functional.
Assay [20] has as its target T1, Protein deacetylase HDAC6 (Homo sapiens, UniProt Q9UBN7).
T1 sequence (Q9UBN7 whole entry): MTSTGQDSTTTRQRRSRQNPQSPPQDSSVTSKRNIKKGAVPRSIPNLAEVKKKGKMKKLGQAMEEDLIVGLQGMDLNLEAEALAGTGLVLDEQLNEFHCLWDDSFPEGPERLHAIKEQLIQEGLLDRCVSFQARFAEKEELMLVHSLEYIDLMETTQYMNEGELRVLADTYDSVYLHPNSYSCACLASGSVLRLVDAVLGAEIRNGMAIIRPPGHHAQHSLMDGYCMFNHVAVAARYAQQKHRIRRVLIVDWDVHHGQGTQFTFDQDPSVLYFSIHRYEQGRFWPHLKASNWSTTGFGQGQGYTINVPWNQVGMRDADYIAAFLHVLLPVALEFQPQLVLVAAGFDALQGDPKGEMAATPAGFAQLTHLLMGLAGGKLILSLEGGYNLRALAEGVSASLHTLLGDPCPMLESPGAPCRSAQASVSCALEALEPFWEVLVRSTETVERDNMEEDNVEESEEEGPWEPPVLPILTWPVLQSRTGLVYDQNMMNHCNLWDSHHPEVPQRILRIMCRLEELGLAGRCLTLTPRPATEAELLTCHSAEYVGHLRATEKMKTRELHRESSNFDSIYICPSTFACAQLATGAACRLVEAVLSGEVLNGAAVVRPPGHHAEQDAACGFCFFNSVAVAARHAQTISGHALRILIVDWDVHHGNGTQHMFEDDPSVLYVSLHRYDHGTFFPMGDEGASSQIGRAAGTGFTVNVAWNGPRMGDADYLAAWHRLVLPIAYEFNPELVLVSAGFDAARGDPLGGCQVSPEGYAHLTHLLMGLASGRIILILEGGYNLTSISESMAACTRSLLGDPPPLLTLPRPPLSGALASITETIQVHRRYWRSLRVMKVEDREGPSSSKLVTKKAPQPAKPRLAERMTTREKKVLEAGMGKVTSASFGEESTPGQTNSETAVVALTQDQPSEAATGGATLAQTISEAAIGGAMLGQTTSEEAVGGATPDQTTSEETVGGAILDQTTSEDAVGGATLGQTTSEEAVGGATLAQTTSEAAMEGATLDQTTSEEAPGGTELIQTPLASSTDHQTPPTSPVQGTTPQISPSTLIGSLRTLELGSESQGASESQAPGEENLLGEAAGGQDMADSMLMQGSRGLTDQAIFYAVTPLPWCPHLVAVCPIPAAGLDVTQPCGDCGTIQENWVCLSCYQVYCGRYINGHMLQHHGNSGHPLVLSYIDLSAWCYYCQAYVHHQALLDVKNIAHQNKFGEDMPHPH
As to the kind of experiment: Inhibition of HDAC6 (unknown origin) by fluorescence based assay.

Here are results for two compounds from ChEMBL document CHEMBL6096706, “Discovery of WDR5-MLL1 and HDAC Dual-Target Inhibitors for the Treatment of Acute Myeloid Leukemia” (J Med Chem, 2025).

Histone deacetylase 1, sequence (Q13547 whole entry): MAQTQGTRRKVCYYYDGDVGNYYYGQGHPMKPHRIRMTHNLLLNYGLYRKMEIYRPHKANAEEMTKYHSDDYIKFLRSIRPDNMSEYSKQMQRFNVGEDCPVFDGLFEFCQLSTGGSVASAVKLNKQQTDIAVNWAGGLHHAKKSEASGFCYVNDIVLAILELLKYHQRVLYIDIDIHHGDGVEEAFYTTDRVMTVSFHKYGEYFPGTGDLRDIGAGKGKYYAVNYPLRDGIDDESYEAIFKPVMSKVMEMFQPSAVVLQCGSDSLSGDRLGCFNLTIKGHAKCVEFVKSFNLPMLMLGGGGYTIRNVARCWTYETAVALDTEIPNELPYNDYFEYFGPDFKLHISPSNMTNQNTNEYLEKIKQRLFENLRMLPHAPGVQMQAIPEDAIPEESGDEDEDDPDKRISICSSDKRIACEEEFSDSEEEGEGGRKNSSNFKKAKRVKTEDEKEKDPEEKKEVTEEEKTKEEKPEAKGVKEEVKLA
Description for MOLM-13: Antiproliferative activity against human MOLM-13 cells assessed as inhibition of cell growth measured after 72 hrs by CellTiterGlo assay

With `Cc1c(F)c(N)cc(C(=O)Nc2cc(-c3ccc(C(=O)N4CCOCC4)cc3)ccc2N2CCN(C)CC2)c1Cl`, the viability at 0.2 µM in the assay with MV4-11 [1] was 88.5%. Also, the Activity with MV4-11 [2] is 7.65%; in the assay on MV4-11 [3] it was 7.36%; in the assay with MV4-11 [8], 3.51%; with MV4-11 [13] it was 0.58%. In addition, the results for the inhibition of growth at 2 µM in the assay with MV4-11 [4] and in the assay with MV4-11 [10] were 68.6% and 72.3%, respectively. Moreover, in the assay with MV4-11 [5], the inhibition of growth at 0.1 µM was 34.4%. The inhibition of growth at 0.4 µM in the assay with MV4-11 [6] was 25.5%; in the assay with MV4-11 [7], 62.6%. The inhibition of growth at 0.05 µM with MV4-11 [9] was determined as 45.1%; in the assay on MV4-11 [14], 34.5%. For the same compound, the viability at 0.4 µM in the assay on MV4-11 [11] stood at 26.1%. For the same compound, in the assay on MV4-11 [12], the inhibition of growth at 0.2 µM is 60.3%.
`Cc1c(F)c(N)cc(C(=O)Nc2cc(-c3ccc(C(=O)NCc4ccc(/C=C/C(=O)NO)cc4)cc3)ccc2N2CCN(C)CC2)c1Cl`: in the assay with MV4-11 [1], the viability at 0.2 µM was 40.3%. Also, the Activity is listed as 53.31% in the assay with MV4-11 [3]; 6.01% in the assay on MV4-11 [8]; 1.84% in the assay with MV4-11 [16]; 7.14% with MV4-11 [17]; 11.03% in the assay on MV4-11 [18]; 0.41% in the assay on MV4-11 [13]. Also, the Activity in the assay with MV4-11 [19] stood at 2.44%. Also, the values for the IC50 (at Histone deacetylase 1; with MOLM-13; in assay [20]) were 400 nM, 70 nM and 46 nM, respectively. For the same compound, the inhibition in vivo at 20 mg/kg in the assay on MV4-11 [15] was found to be 69%.

Usually IC50 stands for the concentration at which inhibition is half-maximal.
